{
  "source": "ChEMBL document CHEMBL1201862",
  "about": "“PubChem BioAssay data set” (2004)",
  "key": {"Estrogen receptor": {"biological_target": "T1, Estrogen receptor (Homo sapiens, UniProt P03372)", "T1 sequence (P03372 whole entry)": "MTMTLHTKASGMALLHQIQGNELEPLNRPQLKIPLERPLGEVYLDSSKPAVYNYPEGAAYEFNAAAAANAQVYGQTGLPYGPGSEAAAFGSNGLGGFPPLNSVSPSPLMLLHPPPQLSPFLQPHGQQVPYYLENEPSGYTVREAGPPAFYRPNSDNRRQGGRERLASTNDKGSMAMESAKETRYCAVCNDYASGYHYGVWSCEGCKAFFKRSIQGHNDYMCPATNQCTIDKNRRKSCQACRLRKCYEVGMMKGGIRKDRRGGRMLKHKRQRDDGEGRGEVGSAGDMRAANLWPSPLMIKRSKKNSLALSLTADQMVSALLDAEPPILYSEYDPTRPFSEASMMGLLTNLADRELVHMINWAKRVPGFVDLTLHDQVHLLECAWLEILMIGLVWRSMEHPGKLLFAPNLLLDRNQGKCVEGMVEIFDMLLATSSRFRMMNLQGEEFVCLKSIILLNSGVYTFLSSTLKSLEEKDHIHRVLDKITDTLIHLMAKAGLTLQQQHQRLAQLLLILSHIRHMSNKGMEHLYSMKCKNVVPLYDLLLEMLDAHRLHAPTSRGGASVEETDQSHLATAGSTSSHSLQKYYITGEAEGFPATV"}, "[1]": {"experiment": "microbe, parasite or virus in culture", "assay_type": "functional", "conditions": "Mycobacterium tuberculosis"}, "Prothrombin": {"biological_target": "Prothrombin (Homo sapiens, UniProt P00734)", "experiment": "Thrombin 1536 HTS Dose Response Confirmation. [Related pubchem assays: 1046 (Thrombin 1536 HTS; hits were confirmed in this assay)]", "assay_type": "functional"}, "BJ [2]": {"tested_on": "BJ", "experiment": "BJ-TERT fibroblast viability loss – cell-based, RAS-independent, luminescence, dose response (AID 1933)", "assay_type": "functional", "conditions": "Homo sapiens"}, "BJ [3]": {"tested_on": "BJ", "experiment": "cells", "assay_type": "functional, cell-based", "conditions": "Homo sapiens"}, "BJ [4]": {"tested_on": "BJ", "experiment": "BJ-TERT-LT-ST fibroblast viability loss – cell-based, RAS-independent, luminescence, dose response (AID 1935);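 further: BJ fibroblasts immortalized with TERT plus LT and ST oncogenes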", "assay_type": "functional", "conditions": "Homo sapiens"}, "[5]": {"experiment": "DRD fibroblast viability loss – cell-based, non-viral oncogenic, luminescence, dose response (AID 1934)", "assay_type": "functional", "conditions": "Homo sapiens"}, "[6]": {"biological_target": "T2, Calpain-2 catalytic subunit (Sus scrofa, UniProt P43367)", "T2 sequence (P43367 whole entry)": "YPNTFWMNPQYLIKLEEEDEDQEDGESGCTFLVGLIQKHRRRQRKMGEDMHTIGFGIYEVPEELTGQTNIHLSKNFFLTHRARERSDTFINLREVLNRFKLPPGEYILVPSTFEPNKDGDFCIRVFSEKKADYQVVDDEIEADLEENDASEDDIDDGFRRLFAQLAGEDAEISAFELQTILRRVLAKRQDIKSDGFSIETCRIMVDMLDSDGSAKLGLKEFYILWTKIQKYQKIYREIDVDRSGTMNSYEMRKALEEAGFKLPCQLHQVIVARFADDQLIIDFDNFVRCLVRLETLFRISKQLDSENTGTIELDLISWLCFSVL", "experiment": "m-calpain protease blockers, concentration series – biochemical, fluorogenic peptide substrate, dose response (AID 1420)", "assay_type": "functional"}, "Cytochrome P450 2C9": {"biological_target": "Cytochrome P450 2C9 (Homo sapiens, UniProt P11712)", "sequence (P11712 whole entry)": "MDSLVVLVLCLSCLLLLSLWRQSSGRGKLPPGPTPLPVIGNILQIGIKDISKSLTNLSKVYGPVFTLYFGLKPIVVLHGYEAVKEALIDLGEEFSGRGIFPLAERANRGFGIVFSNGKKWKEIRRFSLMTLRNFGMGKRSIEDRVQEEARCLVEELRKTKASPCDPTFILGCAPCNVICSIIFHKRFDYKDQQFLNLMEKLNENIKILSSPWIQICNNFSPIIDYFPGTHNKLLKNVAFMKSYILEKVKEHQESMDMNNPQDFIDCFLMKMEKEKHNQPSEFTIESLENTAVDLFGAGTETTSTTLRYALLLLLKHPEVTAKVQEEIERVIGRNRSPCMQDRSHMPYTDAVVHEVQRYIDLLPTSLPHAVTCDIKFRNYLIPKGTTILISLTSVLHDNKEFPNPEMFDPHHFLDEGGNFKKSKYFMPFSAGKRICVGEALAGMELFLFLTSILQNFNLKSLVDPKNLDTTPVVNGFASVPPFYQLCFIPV"}, "[7]": {"experiment": "Trypanosoma cruzi growth suppression in host cells – NIH3T3 host cells, beta-gal luminescence, confirmation (AID 2044);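 further: luminescent beta-galactosidase reporter signal from transgenic T. cruzi replicating inside host cells; inhibitors lower the luminescence signal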", "assay_type": "functional, cell-based"}, "[8]": {"experiment": "NIH3T3 cell viability loss – ATP luminescence, mouse fibroblasts, counter-screen, dose response (AID 2010);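 further: cells exposed to compound for about 90 hours before reading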", "assay_type": "functional, cell-based"}, "[9]": {"experiment": "blockers of HIV-1 envelope-mediated cell-cell fusion – cherry-pick, dose response (AID 652057)", "assay_type": "functional, cell-based"}, "[10]": {"experiment": "blockers of HIV-1 ZM109 envelope-driven cell-cell fusion – HeLa effector, CEM target cells, luciferase, cherry-pick, dose response (AID 652058)", "assay_type": "functional, cell-based"}, "[11]": {"experiment": "off-target signal loss in HeLa-CEM21 co-culture – HeLa F-luc CTL cells, cherry-picked, counter-screen for HIV-1 Env fusion inhibitor project, dose response (AID 652040);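 further: potency for signal decrease marking cytotoxic or nonspecific inhibition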", "assay_type": "functional, cell-based"}, "[12]": {"experiment": "HIV-1 AD8 envelope cell-cell fusion blockers – cherry-pick, dose response (AID 652062);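 further: potency is for inhibitors of fusion seen as a drop in luminescence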", "assay_type": "functional, cell-based"}, "Cytochrome P450 1A2": {"biological_target": "T3, Cytochrome P450 1A2 (Homo sapiens, UniProt P05177)", "T3 sequence (P05177 whole entry)": "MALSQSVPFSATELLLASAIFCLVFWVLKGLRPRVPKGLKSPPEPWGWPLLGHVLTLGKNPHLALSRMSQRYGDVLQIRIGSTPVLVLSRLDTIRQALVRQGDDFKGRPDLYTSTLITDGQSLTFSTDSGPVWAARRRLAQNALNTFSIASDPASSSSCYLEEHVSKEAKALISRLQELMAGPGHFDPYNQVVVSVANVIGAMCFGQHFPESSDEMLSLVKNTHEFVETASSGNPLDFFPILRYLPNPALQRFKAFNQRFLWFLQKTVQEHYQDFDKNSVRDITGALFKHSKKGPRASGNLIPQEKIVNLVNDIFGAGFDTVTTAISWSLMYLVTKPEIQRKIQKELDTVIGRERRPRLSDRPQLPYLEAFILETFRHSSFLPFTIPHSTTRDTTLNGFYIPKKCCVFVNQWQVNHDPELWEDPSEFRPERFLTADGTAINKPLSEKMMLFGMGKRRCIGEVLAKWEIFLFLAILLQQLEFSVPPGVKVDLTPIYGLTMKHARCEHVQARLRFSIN"}, "[13]": {"biological_target": "T4, Ubiquitin-conjugating enzyme E2 N (Homo sapiens, UniProt P61088)", "T4 sequence (P61088 whole entry)": "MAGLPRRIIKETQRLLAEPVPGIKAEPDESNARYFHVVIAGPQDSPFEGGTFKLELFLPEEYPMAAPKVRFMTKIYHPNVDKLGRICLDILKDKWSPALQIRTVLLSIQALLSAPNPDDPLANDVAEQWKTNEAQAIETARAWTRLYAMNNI", "assay_type": "functional"}},
  "note": "Activity calls are given as the source filed them.",
  "data": [
    {"compound": "COc1cc(NC(=O)c2cccs2)c(C(=O)OCC(=O)NCc2ccco2)cc1OC", "values": [
      {"measurement": "IC50", "setting": "Estrogen receptor", "result": "14.8 µM (active)"},
      {"measurement": "CC50", "setting": "[1]", "result": "> 40 µM (active)"}
    ]},
    {"compound": "Cc1cc(C)cc(OCC(=O)NNC(=O)CN2C(=O)c3ccccc3C2=O)c1", "values": [
      {"measurement": "IC50", "setting": "Prothrombin", "result": "> 50 µM (not active)"}
    ]},
    {"compound": "C=CCn1c(SCc2c(C)noc2C)nc2cc(C(=O)O)ccc2c1=O", "values": [
      {"measurement": "IC50", "setting": "Prothrombin", "result": "> 50 µM (not active)"}
    ]},
    {"compound": "CCOC(=O)c1[nH]c(C)c(C(=O)c2ccc(C)cc2)c1C", "values": [
      {"measurement": "EC50", "setting": "BJ [2]", "result": "3.19 µM (inconclusive)"},
      {"measurement": "EC50", "setting": "BJ [3]", "result": "23.5 µM (active)"},
      {"measurement": "EC50", "setting": "BJ [4]", "result": "27.4 µM (inconclusive)"},
      {"measurement": "EC50", "setting": "[5]", "result": "3.16 µM (active)"}
    ]},
    {"compound": "Cc1ccc(C(=O)O)cc1N1C(=O)c2cccc3cc(Br)cc(c23)C1=O", "values": [
      {"measurement": "IC50", "setting": "[6]", "result": "7.36 µM (not active)"},
      {"measurement": "AC50", "setting": "Cytochrome P450 2C9", "result": "15.8 µM (inconclusive)"}
    ]},
    {"compound": "CCC(C(=O)OCC(=O)Nc1ccc(SC(F)F)cc1)c1ccccc1", "note": "(stereo not given)", "values": [
      {"measurement": "EC50", "setting": "[7]", "result": "1.68 µM (active)"},
      {"measurement": "IC50", "setting": "Prothrombin", "result": "> 50 µM (not active)"},
      {"measurement": "IC50", "setting": "[6]", "result": "7.17 µM (not active)"},
      {"measurement": "EC50", "setting": "[8]", "result": "> 60 µM (not active)"}
    ]},
    {"compound": "COc1cccc(C(=O)N2c3ccccc3Sc3ccccc32)c1", "values": [
      {"measurement": "IC50", "setting": "[6]", "result": "6.88 µM (not active)"}
    ]},
    {"compound": "O=c1c2c(-c3ccccc3)csc2ncn1/N=C/c1ccc(O)c([N+](=O)[O-])c1", "values": [
      {"measurement": "IC50", "setting": "[6]", "result": "9.57 µM (not active)"}
    ]},
    {"compound": "Cn1c(=O)n(-c2cccc(Cl)c2)c(=O)c2c3c(sc21)COC(C)(C)C3", "values": [
      {"measurement": "AC50", "setting": "[9]", "result": "3.65 µM (active)"},
      {"measurement": "AC50", "setting": "[10]", "result": "3.36 µM (active)"},
      {"measurement": "AC50", "setting": "[11]", "result": "6.71 µM (active)"},
      {"measurement": "AC50", "setting": "[12]", "result": "1.37 µM (active)"},
      {"measurement": "AC50", "setting": "Cytochrome P450 1A2", "result": "14.1 µM (inconclusive)"}
    ]},
    {"compound": "CCC(CC)NC(=O)COC(=O)c1ccc(OCC(=O)Nc2ccccc2OC)c(OC)c1", "values": [
      {"measurement": "IC50", "setting": "[6]", "result": "18.5 µM (not active)"}
    ]},
    {"compound": "COc1ccc2cc(C(=O)N3CCCCCC3)sc(=O)c2c1OC", "values": [
      {"measurement": "IC50", "setting": "[6]", "result": "11.1 µM (active)"}
    ]},
    {"compound": "CNC[C@H](Cc1cccc2ccccc12)NC[C@H](CCSC)NCC1CCC(C(C)(C)C)CC1", "note": "(stereo not given in full)", "values": [
      {"measurement": "CC50", "setting": "[1]", "result": "25.4 µM (active)"}
    ]},
    {"compound": "CCOc1ccc(N2C(=O)C3C(c4ccccc4)=NN(c4ccccc4)C3C2=O)cc1", "note": "(stereo not given)", "values": [
      {"measurement": "IC50", "setting": "[13]", "result": "> 20 µM (inactive)"}
    ]}
  ]
}
